Like-named read-outs stand apart in the source and are kept apart here.
Key:
[1] = tested on: B-CLL cells; test: cells; format: cell-based; conditions: Homo sapiens, read-out: LC50
Description: FIG. 1. LC50 determination of MS-275 in primary B-CLL cells. Peripheral blood mononuclear cells (PBMCs) from thirteen individual B-CLL patients were isolated and incubated with varying concentrations of MS-275 from 0.01 to 100 uM. A. Cells were incubated in drug for 4 hours and were then washed and re-incubated in fresh media for a total of 96 hours. B. Cells were incubated in drug for 96 hours continuously. Viability was determined by an MTT assay to detect metabolic activity. Each patient sample at each concentration was run in quadruplicate and was normalized to cells from the same patient incubated for the same time period in media alone. Error bars represent 95% confidence intervals. […]
In order to accurately represent the in vivo situation where drug is eliminated from the bloodstream, 1×10^6 PBMCs from B-CLL patients or healthy volunteers, isolated as described in Example 1, were incubated in various concentrations of MS-275 in RPMI 1640 with 10% heat-inactivated fetal bovine serum for 4, 24 or 96 hours at 37° C. in 96-well plates. […] Viability of the cells was then analyzed using the MTT assay. […] To use the MTT assay, MTT reagent was added and the cells were incubated for an additional 24 hours before washing and analysis of purple formazan formation by spectrophotometry in a Labsystems 96-well plate reader. […]

[2] = in vitro; format: cell-based; conditions: human
Text: Peripheral blood mononuclear cells (PBMCs) were obtained from the B-CLL patients and were also obtained from healthy volunteers as controls. Peripheral blood was collected from the patients or volunteers using standard techniques (see for example, S. Bennett and S. N. Breit, 1994, Variables in the isolation and culture of human monocytes that are of particular relevance to studies of HIV, J. Leukoc. Biol. 56:236-40). PMBCs were isolated from the blood using standard density gradient centrifugation using Ficoll-Paque Plus (Pharmacia Biotech, Picsataway N.J.). After isolation, the PBMCs were washed in phosphate-buffered saline (PBS).
In order to accurately represent the in vivo situation where drug is eliminated from the bloodstream, 1×10^6 PBMCs from B-CLL patients or healthy volunteers, isolated as described in Example 1, were incubated in various concentrations of MS-275 in RPMI 1640 with 10% heat-inactivated fetal bovine serum for 4, 24 or 96 hours at 37° C. in 96-well plates. […] Viability of the cells was then analyzed using the MTT assay. […] To use the MTT assay, MTT reagent was added and the cells were incubated for an additional 24 hours before washing and analysis of purple formazan formation by spectrophotometry in a Labsystems 96-well plate reader. Data were plotted and values were calculated using GraphPad software (San Diego, Calif.).

[3] = tested on: histone deacetylases; test: Histone acetylation in B-CLL cells by immunoblotting; format: cell-based, human
Description: FIG. 2. MS-275 induced acetylation of histone proteins. PBMCs from two different B-CLL patients (Patient No. 1 and 2) were collected and incubated with 0, 0.3, or 3.0 μM MS-275 for 24 hours. Nuclear extracts were prepared from the cells and were separated by SDS-polyacrylamide gel electrophoresis before immunoblotting with antibodies immunospecific for acetylated forms of H3 or H4 histones. Coomassie blue staining was used to control for protein amount loaded onto the SDS polyacrylamide gels.
Antibodies immunospecific for specific acetylated lysine residues at the N terminus of histone H4 (i.e., K5, K8, K12 and K16) were also used. For immunoblotting, whole cell lysates were prepared from the cells using standard procedures. Protein samples were separated along with molecular weight markers (BioRad) on 10 to 14% SDS-polyacrylamide gels. Proteins in the gels were transferred using a semidry apparatus (BioRad) onto nitrocellulose membranes (Schleicher and Schuell, Keene, N.H.). Gel loading equivalence was confirmed by Ponceau S stain (Sigma) of membranes and by probing with a monoclonal antibody for GAPDH. Blots were developed with chemiluminescent substrate (Pierce Super-Signal, Pierce Biotechnology, Rockford, Ill.) and autoradiography was performed with X-OMAT film (Kodak, Rochester, N.Y.). Protein bands were digitally quantified using a ChemiDoc instrument (BioRad).

[4] = tested on: B-CLL cells; test: Annexin V/propidium iodide flow cytometric apoptosis assay; format: cell-based, human
Description: FIG. 3. […] B-CLL patient cells were incubated with 0, 0.3, or 3.0 μM MS-275 for 24 hours. Apoptosis was assessed by annexin V/propidium iodide flow cytometry. To determine whether MS-275-treated B-CLL cells were undergoing apoptosis, an annexin V/propidium iodide flow cytometric assay was used to analyze the B-CLL cells, isolated as described in Example 1, from four different patients. Staining of cells for annexin V is an early indicator of initiation of apoptosis. Staining of cells with propidium iodide is an indicator that cells are no longer viable and, therefore, that apoptosis has actually occurred (i.e., integrity of cell membrane has been breached). To perform the assay, cells were exposed to various concentrations of MS-275 for 4 hours. Then, the cells were washed, resuspended in complete medium and incubated for 24 or 48 hours in absence of MS-275. At these times, cells were washed with PBS and resuspended in binding buffer containing annexin V-FITC and propidium iodide (BD Pharmingen, San Diego, Calif.). After 15 minutes of incubation in the dark at room temperature, apoptosis was assessed by flow cytometry on a Coulter EPICS-XL flow cytometer. […] The results were similar in the other three patients.

[5] = tested on: caspase 3; test: Caspase activation colorimetric assay, caspase 3; format: cell-based, human; conditions: B-CLL cells, 0.3 or 3.0 μM MS-275, 24 hours
Description: FIG. 4. […] B-CLL patient cells were incubated with 0.3 or 3.0 μM MS-275 for 24 hours. At these time points, lysates were prepared from the cells and caspase 3 activity in the lysates was measured using a colorimetric assay. To determine the role and identity of caspases involved in MS-275-induced apoptosis, B-CLL cells, isolated as described in Example 1, were treated with MS-275 and analyzed for caspase activation by colorimetric assay. […] Cleavage of the protein BID, a known substrate of caspase 8, was also shown.

[6] = tested on: caspases 8 and 9; test: Caspase activation, caspases 8 and 9; format: cell-based, human; conditions: B-CLL cells treated with MS-275, other studies
Description: To determine the role and identity of caspases involved in MS-275-induced apoptosis, B-CLL cells, isolated as described in Example 1, were treated with MS-275 and analyzed for caspase activation by colorimetric assay. […] Cleavage of the protein BID, a known substrate of caspase 8, was also shown.

[7] = tested on: 1D10 antigen; test: 1D10 antigen levels on B-CLL cells by immunofluorescence flow cytometry; format: cell-based, human; conditions: 3.0 μM MS-275, 24 hours
Description: Washed B-CLL cells, isolated as described in Example 1, from four different patients with B-CLL, were incubated at a concentration of 10^7 cells per ml in the presence or absence of 3.0 μM MS-275 for 24 hours, before being immunofluorescently stained with either non-specific antibody (unable to specifically bind to the cells) or antibody immunospecific for 1D10 antigen. All cells were also stained with an antibody immunospecific for CD19 (recognizing B cells). The cells were analyzed by flow cytometry. The mean fluorescence intensity due to 1D10 antigen staining of CD19-positive cells was recorded.

[8] = tested on: cellular histone deacetylase activity; conditions: A. Saito, et al., 1999; cited from earlier work
[9] = tested on: human tumor cell lines; conditions: A. Saito, et al., 1999; cited from earlier work
[10] = Patient No. 1, 0.3 μM MS-275, 24 hours
[11] = Patient No. 1, 3.0 μM MS-275, 24 hours
[12] = Patient No. 2, 0.3 μM MS-275, 24 hours
[13] = Patient No. 2, 3.0 μM MS-275, 24 hours
[14] = Patient No. 1, CD19-positive B-CLL cells
[15] = Patient No. 2, CD19-positive B-CLL cells
[16] = Patient No. 3, CD19-positive B-CLL cells
[17] = Patient No. 4, CD19-positive B-CLL cells

SMILES: Nc1ccccc1NC(=O)c1ccc(CNC(=O)OCc2cccnc2)cc1 [MS-275, N-(2-aminophenyl)-4-[N-(pyridin-3-yl-methoxycarbonyl)aminomethyl]benzamide]
- CC50 ([1]; 96 h): 0.509 µM
- CC50 [1]: 1.21 µM
- CC50 at 4 h [2]: ≥ 21.1 µM
- CC50 at 96 h [2]: ≥ 4.75 µM
- Fold Increase in Histone Acetylation (Relative to Untreated), H3 Total [3, 10]: 1.3 fold
- Fold Increase in Histone Acetylation (Relative to Untreated), H4 K5 [3, 10]: 2.7 fold
- Fold Increase in Histone Acetylation (Relative to Untreated), H4 K8 [3, 10]: 1.6 fold
- Fold Increase in Histone Acetylation (Relative to Untreated), H4 K12 [3, 10]: 4.4 fold
- Fold Increase in Histone Acetylation (Relative to Untreated), H4 K16 [3, 10]: 3.7 fold
- Fold Increase in Histone Acetylation (Relative to Untreated), H4 Total [3, 10]: 2.4 fold
- Fold Increase in Histone Acetylation (Relative to Untreated), H3 Total [3, 11]: 2.3 fold
- Fold Increase in Histone Acetylation (Relative to Untreated), H4 K5 [3, 11]: 8.9 fold
- Fold Increase in Histone Acetylation (Relative to Untreated), H4 K8 [3, 11]: 1.9 fold
- Fold Increase in Histone Acetylation (Relative to Untreated), H4 K12 [3, 11]: 15.8 fold
- Fold Increase in Histone Acetylation (Relative to Untreated), H4 K16 [3, 11]: 9.1 fold
- Fold Increase in Histone Acetylation (Relative to Untreated), H4 Total [3, 11]: 3.9 fold
- Fold Increase in Histone Acetylation (Relative to Untreated), H3 Total [3, 12]: 1.5 fold
- Fold Increase in Histone Acetylation (Relative to Untreated), H4 K5 [3, 12]: 2.6 fold
- Fold Increase in Histone Acetylation (Relative to Untreated), H4 K8 [3, 12]: 4.4 fold
- Fold Increase in Histone Acetylation (Relative to Untreated), H4 K12 [3, 12]: 5.1 fold
- Fold Increase in Histone Acetylation (Relative to Untreated), H4 K16 [3, 12]: 3.1 fold
- Fold Increase in Histone Acetylation (Relative to Untreated), H4 Total [3, 12]: 3.8 fold
- Fold Increase in Histone Acetylation (Relative to Untreated), H3 Total [3, 13]: 3.1 fold
- Fold Increase in Histone Acetylation (Relative to Untreated), H4 K5 [3, 13]: 4.5 fold
- Fold Increase in Histone Acetylation (Relative to Untreated), H4 K8 [3, 13]: 4.8 fold
- Fold Increase in Histone Acetylation (Relative to Untreated), H4 K12 [3, 13]: 10.3 fold
- Fold Increase in Histone Acetylation (Relative to Untreated), H4 K16 [3, 13]: 4.7 fold
- Fold Increase in Histone Acetylation (Relative to Untreated), H4 Total [3, 13]: 5.2 fold
- apoptosis (annexin V/propidium iodide flow cytometry) ([4]; 0.3 μM of MS-275, after 48 hours): apoptosis was detected after 48 hours
- apoptosis (annexin V/propidium iodide flow cytometry) ([4]; 3.0 μM of MS-275, within 24 hours, one representative patient): apoptosis was detected within 24 hours
- effect of Bcl-2 expression on MS-275-induced apoptosis ([4]; expression of the anti-apoptotic protein Bcl-2, other studies): inhibited by expression of the anti-apoptotic protein Bcl-2
- caspase 3 activation [5]: induced activation of caspase 3
- caspases 8 and 9 activation [6]: activated to a lesser extent than caspase 3
- mean 1D10 fluorescence normalized to the staining control [7, 14]: 88
- mean 1D10 fluorescence of the cells [7, 14]: 104.11
- mean 1D10 fluorescence normalized to the staining control [7, 15]: 393
- mean 1D10 fluorescence of the cells [7, 15]: 463.23
- mean 1D10 fluorescence normalized to the staining control [7, 16]: 3252
- mean 1D10 fluorescence of the cells [7, 16]: 6438.03
- mean 1D10 fluorescence normalized to the staining control [7, 17]: 4158
- mean 1D10 fluorescence of the cells [7, 17]: 5446.76
- inhibition of cellular histone deacetylase activity [8]: inhibit cellular histone deacetylase activity
- growth in a variety of human tumor cell lines [9]: block growth
